Data published in article PMC10149936, “Cofilin activation in pancreatic acinar cells plays a pivotal convergent role for mediating CCK-stimulated enzyme secretion and growth” (Frontiers in Physiology, 2023).

Legend:
[1] = system: cofilin (pS3) in AR42J cells; test: cofilin activation (pS3 cofilin Western blot) in AR42J cells; format: cell-based; details: Cytochalasin D 10 µM or Paclitaxel 5 µM, 4 h; A71378 30 nM 10 min
Protocol: CCK1 receptor transfected Panc-1 (CCK1-R/Panc-1) cells ([Berna et al., 2009]) and AR42J cells, were cultured in DMEM supplemented with 10% FBS and 1% penicillin/streptomycin and in RPMI supplemented with 10% FBS and 1% penicillin/streptomycin, respectively; and split 1:10 weekly with trypsin/EDTA, after washing in PBS. Finally, cells were seeded in 6-well plate and serum starved overnight, until they were 80% confluent. Cells were incubated at 37°C in 5% CO2/95% air. AR42J cells were treated with 100 nM dexamethasone for 72°h, which stimulates their differentiation into exocrine cells ([Logsdon, 1986]).
Western blotting and immunoprecipitation were performed as described previously ([Ramos-Alvarez and Jensen, 2018]). Whole cell lysates were subjected to SDS-PAGE using 4%–20% Tris–Glycine gels. […] The intensity of the protein bands was measured using GeneTools software from Syngene, which were assessed in the linear detection range.
FIGURE 12 Effect of two cofilin inhibitors, Cytochalasin D or Paclitaxel (A, B), or cofilin siRNA (C), on the ability of A71378 (30 and 10 nM) to alter activation of cofilin (A) and p44/42 (B, C). […] Western blots were analyzed using anti-pS3 cofilin, anti-pT202/Y204 p44/42 and Tubulin. Bands were visualized using chemiluminescence and quantified by densitometry. […] Results are expressed as % of basal stimulation of the control group. […]

[2] = system: cofilin / total PP2A association; test: co-immunoprecipitation of cofilin with total PP2A in pancreatic acini; format: cell-based, rat; details: for increase in total PP2A co-immunoprecipitation with cofilin: CCK-8 100 nM 3 min, TPA 1 µM 5 min, Figure 8B
Protocol: For co-immunoprecipitation, 600 μg of protein was incubated with 15 μL of the anti-cofilin antibody (Santa Cruz Biotechnology, Inc. Dallas, TX) and 25 μL of protein A/G agarose beads (Thermo-Fisher Scientific. Waltham, MA) overnight at 4°C under agitation. Samples were washed three times with lysis buffer, re-suspended in 12.5 μL of Sample Buffer, Laemlii 2x concentrate and boiled for 5 min before western blotting.
FIGURE 6 Effect of CCK-8 (100 nM) to alter co-immunoprecipitation of cofilin with total PP2A (A) or PP1 (B). Isolated pancreatic acini were incubated in the absence or presence of CCK-8 (100 nM) for 3 min and then lysed. Equal amounts of protein were co-immunoprecipitated with an anti-cofilin (Santa Cruz, SC-376476) and then subjected to Western blots using anti-PP2A and anti-PP1. Bands were visualized using chemiluminescence and quantified by densitometry. Top: Results of a representative blot of four independent experiments are shown. Bottom: Means ± S.E. of at least 4 independent experiments. Results are expressed as % of basal stimulation of the control group. N.S., No significant. Effect of the lysate, lysis buffer, Protein A/G agarose beads (beads) or Anti-cofilin antibody (Anti-cofilin ab) individually on phospho and total cofilin (pS3), phospho and total PP2A, phospho and total PP1 and tubulin. Lysates were analyzed using cofilin (pS3), Total cofilin, PP2A (pY307), Total PP2A, PP1(pT320), Total PP1 and tubulin. Antibody detecting tubulin was used to verify loading of equal amounts of protein.
FIGURE 8 Effect of a PKD inhibitor, kbNB, or a Src inhibitor, PP2, on the ability of CCK-8 (100 nM) and TPA (1 µM) to stimulate the association of cofilin with either phospho-PP2A (A) or total PP2A (B). Isolated pancreatic acini were incubated in the absence or presence of kbNB (0.1 µM) or PP2 (10 µM) for 3 h and then incubated with no addition (control), CCK-8 (100 nM, 3 min) or TPA (1 μM, 5 min), and then lysed. […] Bands were visualized using chemiluminescence and quantified by densitometry. […] Results are expressed as % of basal stimulation of the control group. […]

[3] = system: SSH1 (pS978) in pancreatic acini; test: SSH1 phosphorylation (pS978 SSH1 Western blot) in isolated rat pancreatic acini; format: cell-based; details: for SSH1 dephosphorylation (activation) at short incubation: 0.5 min and 1.5 min, data not shown; for SSH1 phosphorylation (i.e., deactivation), maximum increment: 30 min
Protocol: Pancreatic acini preparations were obtained by collagenase digestion as previously described ([Bissonnette et al., 1984]; [Sato et al., 1989]; [Ramos-Alvarez and Jensen, 2018]). […] Isolated acini and CCK1-R/Panc-1 cells (M&M 2.2.1) were also preincubated with two SSH1 inhibitors, D3 (25 μM, 1 h) ([Li et al., 2015]) or SE (50 μM, 3 h for acini; 24 h for CCK1-R/Panc-1 cells) ([Lee et al., 2017]). […] Cells were lysed in lysis buffer (50 mM Tris/HCl pH 7.5, 150 mM NaCl, 1% Triton X-100, 1% deoxycholate, 0.1% sodium azide, 1 mM EGTA, 0.4 mM EDTA, 0.2 mM sodium orthovanadate, 1 mM PMSF, and one protease inhibitor tablet per 10 mL). After sonication, lysates were centrifuged at 10,000×g for 15 min at 4°C and protein concentration was measured using the Bio-Rad protein assay reagent. Finally, cells were processed as below for Western blotting.
Western blotting and immunoprecipitation were performed as described previously ([Ramos-Alvarez and Jensen, 2018]). Whole cell lysates were subjected to SDS-PAGE using 4%–20% Tris–Glycine gels. […] Finally, membranes were then washed again twice in blocking buffer for 4 min, twice in washing buffer for 4 min, incubated for 4 min with chemiluminescence detection reagents. The intensity of the protein bands was measured using GeneTools software from Syngene, which were assessed in the linear detection range.
FIGURE 2 Time course of phosphorylation of Lim kinase (LIMK) (A), cofilin (B) and Slingshot 1 phosphatase (SSH1) (C) induced by CCK-8 and TPA. Isolated pancreatic acini were incubated with either no addition (control), CCK-8 (0.3 and 100 nM) or TPA (1 µM) for the indicated periods of time and then lysed. Western blots were analyzed using anti-pT508 LIMK, anti-pS3 cofilin and anti-pS978 SSH1, which […] the activation states of LIMK, cofilin and SSH1. Bands were visualized using chemiluminescence and quantified by densitometry. Top: Results of a representative blot of three independent experiments are shown. Bottom: Means ± S.E. of at least 3 independent experiments. Results are expressed as % of basal stimulation of the control group. *, p < 0.05 compared to the control group.

Molecule | inhibition of CCK1-R-induced activation of cofilin in AR42J cells [1] | increase in total PP2A co-immunoprecipitation with cofilin [2] [%] | SSH1 dephosphorylation (activation) at short incubation [3] | SSH1 phosphorylation (i.e., deactivation), maximum increment ([3]; TPA 1 µM) [%] | increase in PP2A immunoprecipitation with cofilin ([2]; CCK-8 100 nM, 3 min, Figure 6) [%] | SSH1 phosphorylation (i.e., deactivation), maximum increment ([3]; CCK-8 100 nM) [%]
C=C1[C@@H](C)[C@H]2[C@H](Cc3ccccc3)NC(=O)[C@]23[C@H](OC(C)=O)/C=C/[C@@](C)(O)C(=O)[C@@H](C)C/C=C/[C@H]3[C@@H]1O [Cytochalasin D] | completely inhibited |  |  |  |  | 
CC(=O)O[C@H]1C(=O)[C@@]2(C)[C@H]([C@H](OC(=O)c3ccccc3)[C@]3(O)C[C@H](OC(=O)[C@H](O)[C@@H](NC(=O)c4ccccc4)c4ccccc4)C(C)=C1C3(C)C)[C@]1(OC(C)=O)CO[C@@H]1C[C@@H]2O [Paclitaxel] | completely inhibited |  |  |  |  | 
CCCCCCCCCCCCCC(=O)O[C@@H]1[C@@H](C)[C@@]2(O)[C@@H](C=C(CO)C[C@]3(O)C(=O)C(C)=C[C@@H]23)[C@H]2C(C)(C)[C@]12OC(C)=O [TPA, 12-O-tetradecanoylphobol-13-acetate] |  | 40 | no dephosphorylation of SSH1 (activation) was seen | 151 |  | 
COOH-terminal octapeptide of cholecystokinin [CCK-8] |  | 40 | no dephosphorylation of SSH1 (activation) was seen |  | 25 | 162
